This experiment relates to MV-4-11 cells. Briefly: Gene expression microarray analysis (Affymetrix PrimeView) and GSEA. Particulars: MV-4-11 cells, 48 hours. On the set-up: RFU PODN (11730768_x_at) / Fold change /veh PODN (11730768_x_at) / RFU LINC00158 (11744669_a_at) / Fold change /veh LINC00158 (11744669_a_at) / RFU DUSP10 (11751237_a_at) / Fold change /veh DUSP10 (11751237_a_at) / RFU ID3 (11757404_x_at) / Fold change /veh ID3 (11757404_x_at) / RFU PLEKHG5 (11737974_s_at) / Fold change /veh PLEKHG5 (11737974_s_at) / RFU LRRC4B (11730491_at) / Fold change /veh LRRC4B (11730491_at) / RFU GIMAP4 (11747438_a_at) / Fold change /veh GIMAP4 (11747438_a_at) / RFU KRT8 (11758183_x_at) / Fold change /veh KRT8 (11758183_x_at) / RFU CNN1 (11734310_a_at) / Fold change /veh CNN1 (11734310_a_at) / RFU VPS37D (11726825_at) / Fold change /veh VPS37D (11726825_at) / RFU C10orf10 (11716522_x_at) / Fold change /veh C10orf10 (11716522_x_at) / RFU KIR2DL2 /// KIR2DL4 /// KIR2DL5A /// KIR2DL5B /// KIR2DS1 /// KIR2DS2 /// KIR2DS3 /// KIR2DS4 /// KIR3DL3 /// KIR3DL3 /// KIR3DS1 (11738374_at) / Fold change /veh KIR2DL2 /// KIR2DL4 /// KIR2DL5A /// KIR2DL5B /// KIR2DS1 /// KIR2DS2 /// KIR2DS3 /// KIR2DS4 /// KIR3DL3 /// KIR3DL3 /// KIR3DS1 (11738374_at) / RFU C1QL1 (11718748_at) / Fold change /veh C1QL1 (11718748_at) / RFU TMPRSS4 (11747572_a_at) / Fold change /veh TMPRSS4 (11747572_a_at) / RFU HAMP (11756126_x_at) / Fold change /veh HAMP (11756126_x_at) / RFU RNFT2 (11725882_a_at) / Fold change /veh RNFT2 (11725882_a_at) / RFU NR4A2 (11747474_a_at) / Fold change /veh NR4A2 (11747474_a_at) / RFU ABCC12 (11746883_a_at) / Fold change /veh ABCC12 (11746883_a_at) / RFU TMEM136 (11760407_x_at) / Fold change /veh TMEM136 (11760407_x_at) / RFU CLDN22 /// WWC2 (11732394_at) / Fold change /veh CLDN22 /// WWC2 (11732394_at) / RFU HLA-DPB1 (11760878_x_at) / Fold change /veh HLA-DPB1 (11760878_x_at) / RFU SPINT1 (11716480_a_at) / Fold change /veh SPINT1 (11716480_a_at) / RFU GAP43 (11754022_s_at) / Fold change /veh GAP43 (11754022_s_at) / RFU A4GNT (11735810_at) / Fold change /veh A4GNT (11735810_at) / RFU PRB3 (11715151_x_at) / Fold change /veh PRB3 (11715151_x_at) / RFU TUBB4B (11761932_at) / Fold change /veh TUBB4B (11761932_at) / RFU CAPN14 (11732068_a_at) / Fold change /veh CAPN14 (11732068_a_at) / RFU TMCC2 (11721928_a_at) / Fold change /veh TMCC2 (11721928_a_at) / RFU IRGQ (11745062_a_at) / Fold change /veh IRGQ (11745062_a_at) / RFU FAM174B (11720279_a_at) / Fold change /veh FAM174B (11720279_a_at) / RFU TMPRSS4 (11748680_a_at) / Fold change /veh TMPRSS4 (11748680_a_at) / RFU FAM212B (11763350_a_at) / Fold change /veh FAM212B (11763350_a_at) / RFU PLEKHG5 (11743358_a_at) / Fold change /veh PLEKHG5 (11743358_a_at) / RFU ZSCAN30 (11745921_a_at) / Fold change /veh ZSCAN30 (11745921_a_at) / RFU CMKLR1 (11741424_a_at) / Fold change /veh CMKLR1 (11741424_a_at) / RFU LOC101060620 /// MAPK8IP1 (11723275_at) / Fold change /veh LOC101060620 /// MAPK8IP1 (11723275_at) / RFU SPTSSB (11747773_x_at) / Fold change /veh SPTSSB (11747773_x_at) / RFU PRSS12 (11739890_at) / Fold change /veh PRSS12 (11739890_at) / RFU BIN1 (11741810_x_at) / Fold change /veh BIN1 (11741810_x_at) / RFU WNT11 (11732464_a_at) / Fold change /veh WNT11 (11732464_a_at) / RFU C10orf10 (11716521_a_at) / Fold change /veh C10orf10 (11716521_a_at) / RFU C5orf56 (11738089_at) / Fold change /veh C5orf56 (11738089_at) / RFU CYB561 (11721691_x_at) / Fold change /veh CYB561 (11721691_x_at) / RFU ANKRD19P (11752326_a_at) / Fold change /veh ANKRD19P (11752326_a_at) / RFU OR2T12 /// OR2T33 /// OR2T8 (11738714_s_at) / Fold change /veh OR2T12 /// OR2T33 /// OR2T8 (11738714_s_at) / RFU VCAN (11748164_a_at) / Fold change /veh VCAN (11748164_a_at) / RFU JSRP1 (11732532_at) / Fold change /veh JSRP1 (11732532_at) / RFU KRTAP10-11 (11738290_x_at) / Fold change /veh KRTAP10-11 (11738290_x_at) / RFU MYO3A (11730013_a_at) / Fold change /veh MYO3A (11730013_a_at) / RFU EBF3 (11725865_a_at) / Fold change /veh EBF3 (11725865_a_at) / RFU CAMK2N1 (11719241_x_at) / Fold change /veh CAMK2N1 (11719241_x_at) / RFU C5orf56 (11738088_a_at) / Fold change /veh C5orf56 (11738088_a_at) / RFU OLFML3 (11715873_a_at) / Fold change /veh OLFML3 (11715873_a_at) / RFU LOC100653217 /// NTM (11731650_a_at) / Fold change /veh LOC100653217 /// NTM (11731650_a_at) / RFU MAPK11 (11762145_a_at) / Fold change /veh MAPK11 (11762145_a_at) / RFU FIZ1 (11724087_x_at) / Fold change /veh FIZ1 (11724087_x_at) / RFU OASL (11726364_x_at) / Fold change /veh OASL (11726364_x_at) / RFU SOX15 (11748057_x_at) / Fold change /veh SOX15 (11748057_x_at) / RFU CD79A (11719716_a_at) / Fold change /veh CD79A (11719716_a_at) / RFU HIST1H1D (11736915_at) / Fold change /veh HIST1H1D (11736915_at) / RFU CASKIN2 (11723855_a_at) / Fold change /veh CASKIN2 (11723855_a_at) / RFU LOC730098 (11760151_x_at) / Fold change /veh LOC730098 (11760151_x_at) / RFU OR4N2 (11742367_at) / Fold change /veh OR4N2 (11742367_at) / RFU PRRT2 (11749266_a_at) / Fold change /veh PRRT2 (11749266_a_at) / RFU SNX32 (11753110_a_at) / Fold change /veh SNX32 (11753110_a_at) / RFU CDHR5 (11726645_a_at) / Fold change /veh CDHR5 (11726645_a_at) / RFU RCAN1 (11760418_a_at) / Fold change /veh RCAN1 (11760418_a_at) / RFU FAM167A (11723789_a_at) / Fold change /veh FAM167A (11723789_a_at) / RFU FAM26E (11764081_at) / Fold change /veh FAM26E (11764081_at) / RFU ISYNA1 (11749810_s_at) / Fold change /veh ISYNA1 (11749810_s_at) / RFU ACY1 (11761880_at) / Fold change /veh ACY1 (11761880_at) / RFU 11764098_at / Fold change /veh 11764098_at / RFU SAMD14 (11745864_x_at) / Fold change /veh SAMD14 (11745864_x_at) / RFU NPB (11741838_a_at) / Fold change /veh NPB (11741838_a_at) / RFU TMPRSS6 (11731388_a_at) / Fold change /veh TMPRSS6 (11731388_a_at) / RFU KRTAP10-2 (11738614_at) / Fold change /veh KRTAP10-2 (11738614_at) / RFU ARHGAP8 /// PRR5-ARHGAP8 (11727945_x_at) / Fold change /veh ARHGAP8 /// PRR5-ARHGAP8 (11727945_x_at) / RFU KRTAP5-7 /// NADSYN1 (11734609_at) / Fold change /veh KRTAP5-7 /// NADSYN1 (11734609_at) / RFU RASL12 (11751679_a_at) / Fold change /veh RASL12 (11751679_a_at) / RFU CDKN2B (11736163_a_at) / Fold change /veh CDKN2B (11736163_a_at) / RFU PRF1 (11729649_at) / Fold change /veh PRF1 (11729649_at) / RFU, ZNF638 /// ZNF638-IT1 / Fold change vs veh, ZNF638 /// ZNF638-IT1 / RFU, PANK3 / Fold change vs veh, PANK3 / RFU, SH3YL1 / Fold change vs veh, SH3YL1 / RFU, ZEB2 / Fold change vs veh, ZEB2 / RFU, NRIP1 / Fold change vs veh, NRIP1 / RFU, PTTG1IP / Fold change vs veh, PTTG1IP / RFU, CAPN2 / Fold change vs veh, CAPN2 / RFU, MED14 / Fold change vs veh, MED14 / RFU, SNORA58 / Fold change vs veh, SNORA58 / RFU, C1orf63 / Fold change vs veh, C1orf63 / RFU, LRRFIP1 / Fold change vs veh, LRRFIP1 / RFU, NDUFAF7 / Fold change vs veh, NDUFAF7 / RFU, SLC12A2 / Fold change vs veh, SLC12A2 / RFU, IBTK / Fold change vs veh, IBTK / RFU, ESF1 / Fold change vs veh, ESF1 / Fold change vs veh, TMEM50B / RFU, TAOK1 / Fold change vs veh, TAOK1 / RFU, ACBD3 / Fold change vs veh, ACBD3 / RFU, TMA16 / Fold change vs veh, TMA16 / RFU, RWDD3 / Fold change vs veh, RWDD3 / RFU, BCAT1 / Fold change vs veh, BCAT1 / RFU, EDEM3 / Fold change vs veh, EDEM3 / RFU, TMEM33 / Fold change vs veh, TMEM33 / RFU, WDR75 / Fold change vs veh, WDR75 / RFU, AHCTF1 / Fold change vs veh, AHCTF1 / RFU, TFRC / Fold change vs veh, TFRC / RFU, ZDHHC17 / Fold change vs veh, ZDHHC17 / RFU, NOM1 / Fold change vs veh, NOM1 / RFU, ARL8B / Fold change vs veh, ARL8B / RFU, ZBTB11 / Fold change vs veh, ZBTB11 / RFU, TAMM41 / Fold change vs veh, TAMM41 / RFU, KIAA1704 /// LOC100996395 / Fold change vs veh, KIAA1704 /// LOC100996395 / RFU, ING1 / Fold change vs veh, ING1 / RFU, TRMT61B / Fold change vs veh, TRMT61B / RFU, FUBP3 / Fold change vs veh, FUBP3 / RFU, TP53 / Fold change vs veh, TP53 / RFU, TNKS2 / Fold change vs veh, TNKS2 / RFU, ZFP14 / Fold change vs veh, ZFP14 / RFU, ACTR2 / Fold change vs veh, ACTR2 / RFU, PPP3R1 / Fold change vs veh, PPP3R1 / RFU, PIK3R1 / Fold change vs veh, PIK3R1 / RFU, HNRNPA1 / Fold change vs veh, HNRNPA1 / RFU, RNF170 / Fold change vs veh, RNF170 / RFU, ZNF28 / Fold change vs veh, ZNF28 / RFU, RNGTT / Fold change vs veh, RNGTT / RFU, OGT / Fold change vs veh, OGT / RFU, BRD1 / Fold change vs veh, BRD1 / RFU, MARS / Fold change vs veh, MARS / RFU, ZNF655 / Fold change vs veh, ZNF655 / RFU, FAHD1 / Fold change vs veh, FAHD1 / RFU, BDP1 / Fold change vs veh, BDP1 / RFU, LRRCC1 / Fold change vs veh, LRRCC1 / RFU, ARID1A / Fold change vs veh, ARID1A / RFU, ZNF146 / Fold change vs veh, ZNF146 / RFU, ZNF330 / Fold change vs veh, ZNF330 / RFU, GPN3 / Fold change vs veh, GPN3 / RFU, C9orf123 / Fold change vs veh, C9orf123 / RFU, N4BP2L2 / Fold change vs veh, N4BP2L2 / RFU, ARFIP1 / Fold change vs veh, ARFIP1 / RFU, FAM179B / Fold change vs veh, FAM179B / RFU, BCL10 / Fold change vs veh, BCL10 / RFU, UHRF1BP1L / Fold change vs veh, UHRF1BP1L / RFU, BET1 / Fold change vs veh, BET1 / RFU, CNOT2 / Fold change vs veh, CNOT2 / RFU, ZNF268 / Fold change vs veh, ZNF268 / Fold change vs veh, ZNF507 / RFU, DGCR2 / Fold change vs veh, DGCR2 / RFU, WDSUB1 / Fold change vs veh, WDSUB1 / Fold change vs veh, HSP90B1 /// MIR3652 / RFU, ADSS / Fold change vs veh, ADSS / RFU, GK / Fold change vs veh, GK / RFU, ZNF148 / Fold change vs veh, ZNF148 / RFU, TAF9 / Fold change vs veh, TAF9 / RFU, SLC1A5 / Fold change vs veh, SLC1A5 / RFU, SLMO2 / Fold change vs veh, SLMO2 / RFU, ABCC4 / Fold change vs veh, ABCC4 / RFU, LOC101060439 /// RAP1B / Fold change vs veh, LOC101060439 /// RAP1B / RFU, RFX7 / Fold change vs veh, RFX7 / RFU, GTPBP10 / Fold change vs veh, GTPBP10 / RFU, CNEP1R1 / Fold change vs veh, CNEP1R1 / RFU, BIVM-ERCC5 /// ERCC5 / Fold change vs veh, BIVM-ERCC5 /// ERCC5 / RFU, ILF3 / Fold change vs veh, ILF3 / RFU 11762660_at / Fold change /veh 11762660_at / RFU VCAN (11757783_s_at) / Fold change /veh VCAN (11757783_s_at) / RFU DDX43 (11728927_at) / Fold change /veh DDX43 (11728927_at) / RFU KRT8 (11758188_x_at) / Fold change /veh KRT8 (11758188_x_at) / RFU NKD1 (11759106_at) / Fold change /veh NKD1 (11759106_at) / RFU SRD5A1 (11742802_a_at) / Fold change /veh SRD5A1 (11742802_a_at) / RFU TPSAB1 /// TPSB2 (11721975_s_at) / Fold change /veh TPSAB1 /// TPSB2 (11721975_s_at) / RFU GSTM3 (11746129_a_at) / Fold change /veh GSTM3 (11746129_a_at) / RFU IL23R (11737362_x_at) / Fold change /veh IL23R (11737362_x_at) / RFU TMEM51 (11727254_a_at) / Fold change /veh TMEM51 (11727254_a_at) / RFU PIWIL2 (11732686_x_at) / Fold change /veh PIWIL2 (11732686_x_at) / RFU ORM1 (11744905_x_at) / Fold change /veh ORM1 (11744905_x_at) / RFU CCDC152 (11743942_at) / Fold change /veh CCDC152 (11743942_at) / RFU ECM1 (11717891_a_at) / Fold change /veh ECM1 (11717891_a_at) / RFU IL23R (11748794_a_at) / Fold change /veh IL23R (11748794_a_at) / RFU TNFAIP8L3 (11732012_x_at) / Fold change /veh TNFAIP8L3 (11732012_x_at) / RFU MBOAT4 (11741988_at) / Fold change /veh MBOAT4 (11741988_at) / RFU 11764193_at / Fold change /veh 11764193_at / RFU TMEM53 (11763286_at) / Fold change /veh TMEM53 (11763286_at) / RFU MAGEB2 (11727129_at) / Fold change /veh MAGEB2 (11727129_at) / RFU TMEM200A (11744735_a_at) / Fold change /veh TMEM200A (11744735_a_at) / RFU CCDC152 (11751479_a_at) / Fold change /veh CCDC152 (11751479_a_at) / RFU FAM211A (11726209_a_at) / Fold change /veh FAM211A (11726209_a_at) / RFU RGS16 (11746705_a_at) / Fold change /veh RGS16 (11746705_a_at) / RFU VCAN (11755009_s_at) / Fold change /veh VCAN (11755009_s_at) / RFU RHOB (11743442_s_at) / Fold change /veh RHOB (11743442_s_at) / RFU RGS16 (11720943_a_at) / Fold change /veh RGS16 (11720943_a_at) / RFU RGS16 (11720944_at) / Fold change /veh RGS16 (11720944_at) / RFU, VPS4B / Fold change vs veh, VPS4B / RFU, CREB1 / Fold change vs veh, CREB1 / RFU, DNAJC13 / Fold change vs veh, DNAJC13 / RFU, GNAQ / Fold change vs veh, GNAQ / RFU, CDK5R1 / Fold change vs veh, CDK5R1 / RFU, ZRANB3 / Fold change vs veh, ZRANB3 / RFU, CUL4A / Fold change vs veh, CUL4A / RFU, CCNY / Fold change vs veh, CCNY / RFU, UFL1 / Fold change vs veh, UFL1 / RFU, COG3 / Fold change vs veh, COG3 / RFU, DIAPH2 / Fold change vs veh, DIAPH2 / RFU, SKA2 / Fold change vs veh, SKA2 / RFU, AFF3 / Fold change vs veh, AFF3 / RFU, LMF1 / Fold change vs veh, LMF1 / RFU, IPO11 / Fold change vs veh, IPO11 / RFU, DFFB / Fold change vs veh, DFFB / RFU, FOXP1 / Fold change vs veh, FOXP1 / RFU, CARD8 / Fold change vs veh, CARD8 / RFU, STRN3 / Fold change vs veh, STRN3 / RFU, ADK / Fold change vs veh, ADK / RFU, RASSF2 / Fold change vs veh, RASSF2 / RFU, WIPF1 / Fold change vs veh, WIPF1 / RFU, LARP1B / Fold change vs veh, LARP1B / RFU, RASA1 / Fold change vs veh, RASA1 / RFU, RB1 / Fold change vs veh, RB1 / RFU, PPFIA1 / Fold change vs veh, PPFIA1 / RFU, MAT2A / Fold change vs veh, MAT2A / RFU, CCT5 / Fold change vs veh, CCT5 / RFU, WDR92 / Fold change vs veh, WDR92 / RFU, CUX1 / Fold change vs veh, CUX1 / RFU, TTC7A / Fold change vs veh, TTC7A / RFU, TMEM135 / Fold change vs veh, TMEM135 / RFU, DEPTOR / Fold change vs veh, DEPTOR / RFU, CPM / Fold change vs veh, CPM / RFU, DNAJB6 / Fold change vs veh, DNAJB6 / RFU, CACNA2D3 / Fold change vs veh, CACNA2D3 / RFU, DTX4 / Fold change vs veh, DTX4 / RFU, TFCP2 / Fold change vs veh, TFCP2 / RFU, GMCL1 /// GMCL1P1 / Fold change vs veh, GMCL1 /// GMCL1P1 / RFU, AEBP2 / Fold change vs veh, AEBP2 / RFU, SNHG1 /// SNORD22 /// SNORD25 /// SNORD26 /// SNORD27 /// SNORD28 /// SNORD29 /// SNORD31 / Fold change vs veh, SNHG1 /// SNORD22 /// SNORD25 /// SNORD26 /// SNORD27 /// SNORD28 /// SNORD29 /// SNORD31 / Fold change (Aza/veh), C12orf56 (ProbeSet 11735607_a_at) / Fold change (ACY-1035/veh), C12orf56 (ProbeSet 11735607_a_at) / Fold change (Aza/veh), FGFR1OP (ProbeSet 11751329_s_at) / Fold change (ACY-1035/veh), FGFR1OP (ProbeSet 11751329_s_at) / Fold change (Aza/veh), VPS36 (ProbeSet 11739960_a_at) / Fold change (ACY-1035/veh), VPS36 (ProbeSet 11739960_a_at) / RFU SYPL1 (11715823_x_at) / Fold change /veh SYPL1 (11715823_x_at) / RFU IGFBP7 (11715501_s_at) / Fold change /veh IGFBP7 (11715501_s_at) / RFU REEP3 (11722064_at) / Fold change /veh REEP3 (11722064_at) / RFU IGLL1 (11728026_x_at) / Fold change /veh IGLL1 (11728026_x_at): dose or concentration left out as unconfirmed. Format: cell-based, human.

Each structure is given as a SMILES string.

On to `Nc1ncn([C@@H]2O[C@H](CO)[C@@H](O)[C@H]2O)c(=O)n1` [azacitidine], for which the “RFU MYO3A (11730013_a_at)” value is recorded as 81.22 RFU.
